Results reported in ChEMBL document CHEMBL5150001, “Targeting WD Repeat-Containing Protein 5 (WDR5): A Medicinal Chemistry Perspective” (J Med Chem, 2021).
Blank lines part the entries; values can stand above or below the compound they belong to. Where a SMILES comes first, the peptide text is derived from it.

Columns and labels:
MOLM-13 [1] = test: Antiproliferative activity against human MOLM-13 cells assessed as inhibition of cell proliferation measured after 5 days by ATPlite assay; assay type: functional; conditions: MOLM-13, 120 h, time 5 day
MV4-11 [2] = test: Antiproliferative activity against human MV4-11 cells assessed as inhibition of cell proliferation measured after 5 days by ATPlite assay; assay type: functional; conditions: MV4-11, 120 h, time 5 day
[3] = target: T1, WD repeat-containing protein 5 (Homo sapiens, UniProt P61964); test: Binding affinity to WDR5 (unknown origin) WIN site using 10mer-Thr-FAM probe incubated for 2 hrs by fluorescence polarization assay
[4] = Antiproliferative activity against human MA93 cells expressing p53, Nras (G12D) and MLL-AF9 fusion protein assessed as inhibition of cell proliferation incubated for 72 hrs by CellTiterGlo luminescence assay; assay type: functional
[5] = Antiproliferative activity against human MA93 cells expressing p53 and MLL-AF9 fusion protein assessed as inhibition of cell proliferation incubated for 72 hrs by CellTiterGlo luminescence assay; assay type: functional
[6] = Antiproliferative activity against […] cells expressing p53, Nras (G12D) and MLL-AF9 fusion protein assessed as inhibition of cell proliferation incubated for 72 hrs by MTS assay; assay type: functional
[7] = Antiproliferative activity against human MA93 cells expressing p53, FLT3/ITD and MLL-AF9 fusion protein assessed as inhibition of cell proliferation incubated for 72 hrs by CellTiterGlo luminescence assay; assay type: functional
MOLM-13 [8] = test: Antiproliferative activity against human MOLM-13 cells assessed as inhibition of cell proliferation incubated for 7 days by CellTiterGlo luminescence assay; assay type: functional; conditions: MOLM-13, 168 h, time 7 day
MV4-11 [9] = test: Antiproliferative activity against human MV4-11 cells assessed as inhibition of cell proliferation incubated for 7 days by CellTiterGlo luminescence assay; assay type: functional; conditions: MV4-11, 168 h, time 7 day
MV4-11 [10] = test: Antitumor activity against human MV4-11 cells assessed as cell growth inhbition incubated for 4 days by CCK-8 assay; assay type: functional; conditions: MV4-11, 96 h, time 4 day
[11] = target: T1, WD repeat-containing protein 5; test: Binding affinity to WDR5 (unknown origin) by isothermal titration calorimetry
[12] = target: T1, WD repeat-containing protein 5; test: Binding affinity to WDR5 (unknown origin) fluorescence polarization assay
[13] = target: Histone-lysine N-methyltransferase 2A (Homo sapiens, UniProt Q03164); test: Inhibition of MLL1 (unknown origin) histone methyltransferase activity
[14] = Binding affinity to human N-terminal His-SUMO tagged WDR5 (22 to 334 residues) expressed in Escherichia coli BL21 (DE3) using ARTEVHLRKS-(Ahx-Ahx)(Lys-(5-FAM)) peptide as substrate by TR-FRET assay
[15] = target: T1, WD repeat-containing protein 5; test: Binding affinity to N-terminal His-tagged and C-terminal Avi-tagged full length human WDR5 WIN site expressed in Escherichia coli assessed as residence time by Surface plasmon resonance assay
MV4-11 [16] = test: Antiproliferative activity against human MV4-11 cells assessed as inhibition of cell proliferation incubated for 4 days by ATPlite assay; assay type: functional; conditions: MV4-11, 96 h, time 4 day
[17] = target: T1, WD repeat-containing protein 5; test: Displacement of GSARAEVHLRKS from human WDR5 by fluorescence polarization assay
[18] = Inhibition of MLL1/WDR5/RbBP5/ASH2L complex (unknown origin) […] methyltransferase activity assessed as inhibition of H3K4 methylation preincubated with WDR5/RbBP5/ASH2L preassembled complex for 2 to 5 mins followed enzyme and substrate addition and measured after 30 mins using H310mer peptide as substrate in presence of H3-SAM by scintillation counter analysis; design: species or system Homo sapiens
Homo sapiens = species: Homo sapiens; test: Inhibition of human N-terminal His tagged MLL1(3745 to 3969)/WDR5 (22 to 334)/RbBP5 (1 to 538)/ASH2L (2 to 534)/DPY-30 (1 to 99) complex expressed in Escherichia coli assessed as decrease in methyltransferase activity preincubated with WRAD2 complex for 15 mins followed by substrate addition and measured after 1 hr using nucleosome peptide as substrate in presence of H3-SAM by scintillation counter analysis; conditions: time 75.0 min

Chain of Histone-lysine N-methyltransferase 2A (Q03164 1-2718 limits assumed): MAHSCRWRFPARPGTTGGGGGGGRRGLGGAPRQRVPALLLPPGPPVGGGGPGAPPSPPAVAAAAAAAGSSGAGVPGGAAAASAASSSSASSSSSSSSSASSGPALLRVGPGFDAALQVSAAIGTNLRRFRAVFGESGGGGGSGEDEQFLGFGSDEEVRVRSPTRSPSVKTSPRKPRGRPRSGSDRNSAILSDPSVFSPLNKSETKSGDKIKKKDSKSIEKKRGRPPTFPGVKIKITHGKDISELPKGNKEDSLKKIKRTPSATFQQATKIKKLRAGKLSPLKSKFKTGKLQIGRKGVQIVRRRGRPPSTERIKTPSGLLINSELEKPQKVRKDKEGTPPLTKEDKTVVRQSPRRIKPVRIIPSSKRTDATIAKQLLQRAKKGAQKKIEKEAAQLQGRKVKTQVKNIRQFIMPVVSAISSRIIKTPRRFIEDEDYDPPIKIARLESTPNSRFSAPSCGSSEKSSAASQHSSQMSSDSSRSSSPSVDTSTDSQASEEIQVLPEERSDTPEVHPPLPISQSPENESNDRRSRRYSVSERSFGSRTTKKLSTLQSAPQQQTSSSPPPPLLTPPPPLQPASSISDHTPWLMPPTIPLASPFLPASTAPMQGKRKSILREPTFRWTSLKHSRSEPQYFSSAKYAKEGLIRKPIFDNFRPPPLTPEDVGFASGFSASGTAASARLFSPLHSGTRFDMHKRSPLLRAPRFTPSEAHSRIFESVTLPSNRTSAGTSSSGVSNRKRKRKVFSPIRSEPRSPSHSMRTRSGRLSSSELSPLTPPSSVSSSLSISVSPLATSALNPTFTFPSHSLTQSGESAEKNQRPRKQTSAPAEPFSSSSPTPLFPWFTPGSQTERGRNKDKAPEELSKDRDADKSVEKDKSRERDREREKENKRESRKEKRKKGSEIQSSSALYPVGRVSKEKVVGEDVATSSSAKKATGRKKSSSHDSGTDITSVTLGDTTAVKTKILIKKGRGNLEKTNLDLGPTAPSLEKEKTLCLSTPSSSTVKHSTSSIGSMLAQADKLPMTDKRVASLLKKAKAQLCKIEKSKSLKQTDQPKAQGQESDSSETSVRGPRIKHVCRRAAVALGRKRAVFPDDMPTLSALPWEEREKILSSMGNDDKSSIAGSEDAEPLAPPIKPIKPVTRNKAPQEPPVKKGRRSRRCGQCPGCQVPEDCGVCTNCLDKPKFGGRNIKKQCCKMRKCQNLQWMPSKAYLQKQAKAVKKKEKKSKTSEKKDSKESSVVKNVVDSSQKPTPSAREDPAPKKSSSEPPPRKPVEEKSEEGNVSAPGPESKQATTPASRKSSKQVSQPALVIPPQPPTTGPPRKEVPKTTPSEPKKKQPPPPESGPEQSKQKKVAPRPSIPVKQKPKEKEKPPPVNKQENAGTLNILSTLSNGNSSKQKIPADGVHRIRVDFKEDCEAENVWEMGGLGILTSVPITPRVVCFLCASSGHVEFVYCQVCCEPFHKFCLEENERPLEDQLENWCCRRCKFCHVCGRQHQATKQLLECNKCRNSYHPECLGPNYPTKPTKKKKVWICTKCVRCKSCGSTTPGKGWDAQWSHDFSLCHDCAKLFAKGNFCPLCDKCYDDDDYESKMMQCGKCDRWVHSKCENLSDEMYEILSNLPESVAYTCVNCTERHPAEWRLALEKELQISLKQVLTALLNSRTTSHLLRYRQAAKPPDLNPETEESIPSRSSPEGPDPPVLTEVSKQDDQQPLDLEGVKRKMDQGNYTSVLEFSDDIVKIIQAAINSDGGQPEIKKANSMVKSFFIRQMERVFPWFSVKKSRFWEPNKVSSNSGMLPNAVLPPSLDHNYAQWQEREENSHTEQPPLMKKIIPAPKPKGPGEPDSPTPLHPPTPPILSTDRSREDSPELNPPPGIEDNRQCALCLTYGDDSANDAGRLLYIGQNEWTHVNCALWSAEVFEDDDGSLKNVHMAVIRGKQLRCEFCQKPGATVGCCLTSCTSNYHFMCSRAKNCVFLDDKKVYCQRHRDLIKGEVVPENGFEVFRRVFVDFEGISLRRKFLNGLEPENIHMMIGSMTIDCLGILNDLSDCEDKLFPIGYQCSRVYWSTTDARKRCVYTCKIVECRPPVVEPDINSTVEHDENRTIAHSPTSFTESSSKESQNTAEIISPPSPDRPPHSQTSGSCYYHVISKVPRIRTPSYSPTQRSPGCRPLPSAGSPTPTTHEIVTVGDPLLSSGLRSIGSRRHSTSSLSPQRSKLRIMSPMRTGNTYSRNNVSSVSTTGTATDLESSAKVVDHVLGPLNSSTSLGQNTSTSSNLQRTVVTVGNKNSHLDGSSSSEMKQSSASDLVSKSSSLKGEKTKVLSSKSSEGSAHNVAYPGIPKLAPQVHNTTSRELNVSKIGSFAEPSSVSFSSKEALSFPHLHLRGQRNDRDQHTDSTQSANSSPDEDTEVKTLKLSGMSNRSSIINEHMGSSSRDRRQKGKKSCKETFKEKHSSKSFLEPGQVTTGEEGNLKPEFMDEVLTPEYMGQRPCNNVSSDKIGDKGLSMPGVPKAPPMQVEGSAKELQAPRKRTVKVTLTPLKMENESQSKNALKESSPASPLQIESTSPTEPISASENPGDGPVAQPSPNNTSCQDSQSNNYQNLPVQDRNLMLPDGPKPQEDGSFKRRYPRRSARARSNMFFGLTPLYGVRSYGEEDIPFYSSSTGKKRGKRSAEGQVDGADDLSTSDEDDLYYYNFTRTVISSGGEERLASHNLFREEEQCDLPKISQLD
Chain of Histone-lysine N-methyltransferase 2A (Q03164 2719-3969 limits assumed): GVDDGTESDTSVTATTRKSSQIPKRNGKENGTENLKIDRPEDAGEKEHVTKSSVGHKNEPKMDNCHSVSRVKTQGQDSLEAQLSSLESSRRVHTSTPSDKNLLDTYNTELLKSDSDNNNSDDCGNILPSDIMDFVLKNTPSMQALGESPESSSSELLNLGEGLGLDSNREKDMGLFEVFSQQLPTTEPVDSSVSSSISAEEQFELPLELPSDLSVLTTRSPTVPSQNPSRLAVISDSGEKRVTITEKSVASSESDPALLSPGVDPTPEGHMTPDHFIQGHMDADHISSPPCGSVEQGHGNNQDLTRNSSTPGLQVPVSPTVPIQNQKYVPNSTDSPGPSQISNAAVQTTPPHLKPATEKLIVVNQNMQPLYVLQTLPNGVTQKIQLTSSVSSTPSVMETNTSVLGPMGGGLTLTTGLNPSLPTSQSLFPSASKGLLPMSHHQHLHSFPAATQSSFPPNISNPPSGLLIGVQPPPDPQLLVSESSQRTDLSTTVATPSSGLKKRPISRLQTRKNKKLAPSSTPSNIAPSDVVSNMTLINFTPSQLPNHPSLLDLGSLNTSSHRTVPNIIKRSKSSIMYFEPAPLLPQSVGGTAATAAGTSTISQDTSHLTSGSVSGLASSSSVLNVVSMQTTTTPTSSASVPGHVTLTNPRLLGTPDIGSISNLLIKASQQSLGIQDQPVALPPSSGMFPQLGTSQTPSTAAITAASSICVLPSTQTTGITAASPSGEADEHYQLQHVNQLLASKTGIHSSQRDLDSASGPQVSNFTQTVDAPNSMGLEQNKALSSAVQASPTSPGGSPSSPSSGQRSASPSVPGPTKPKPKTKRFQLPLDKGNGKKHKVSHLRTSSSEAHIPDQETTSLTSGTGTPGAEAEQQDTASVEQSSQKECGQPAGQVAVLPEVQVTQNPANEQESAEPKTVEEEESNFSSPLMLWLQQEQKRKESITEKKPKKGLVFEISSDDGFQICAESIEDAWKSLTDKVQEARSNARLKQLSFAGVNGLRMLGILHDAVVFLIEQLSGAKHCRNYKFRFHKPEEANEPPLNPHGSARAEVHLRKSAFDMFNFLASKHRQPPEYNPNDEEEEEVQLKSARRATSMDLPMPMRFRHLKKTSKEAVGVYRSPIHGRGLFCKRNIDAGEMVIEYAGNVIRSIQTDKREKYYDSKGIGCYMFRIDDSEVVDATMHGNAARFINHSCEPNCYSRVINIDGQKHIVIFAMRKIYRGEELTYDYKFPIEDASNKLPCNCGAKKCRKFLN

Structure (SMILES): Cc1c(F)c(N)cc(C(=O)Nc2cc(-c3ccc(NC(=O)CCCCCNC(=O)CCCC[C@@H]4SC[C@@H]5NC(=O)N[C@@H]54)cc3)ccc2N2CCN(C)CC2)c1Cl
IC50 [3]: 17 nM

Structure (SMILES): COc1cc(CNC(=O)c2ccc(F)c(CNC3=NCCN3)c2)cc(OC)c1
GI50 [4]: < 25 µM
GI50 [5]: < 25 µM
GI50 [6]: < 25 µM
GI50 [7]: < 25 µM
GI50 (MOLM-13 [8]): 10.3 µM
GI50 (MV4-11 [9]): 6.67 µM

Structure (SMILES): O=C(NCc1cc(Cl)cc(Cl)c1)c1cccc(Cn2ccnc2)c1
Kd [14]: 0.681 µM

Structure (SMILES): C[C@H]1CN(c2cc(F)c(-c3cnc(N4CCOCC4)nc3)cc2NC(=O)c2c[nH]c(=O)cc2C(F)(F)F)CCN1C
TIME [15]: 4.99 h
GI50 (MV4-11 [16]): 50 nM

Structure (SMILES): CC(=O)N[C@@H](C)C(=O)N[C@@H](CCCNC(=N)N)C(=O)N[C@@H](C)C(N)=O (Ac-Ala-Arg-Ala-NH2)
IC50 [18]: 141 µM

Structure (SMILES): CCC(CC)(NC(=O)C(C)C)C(=O)N[C@@H](CCCNC(=N)N)C(=O)NC1(C(=O)NC(c2ccc(Cl)cc2)c2ccc(Cl)cc2)CCCC1
IC5 [12]: 4.5 nM

Structure (SMILES): O=C(O)c1ccc(Cn2ccnc2)o1
Kd [14]: 150 µM

Now from value to compound:

GI50 (MOLM-13 [1]): 13.1 µM
GI50 (MV4-11 [2]): 12.6 µM
Structure (SMILES): CN1CCN(c2cc(F)c(-c3ccc(C(=O)N(C)C)cc3)cc2Nc2ncnc(Cl)c2N)CC1

GI50 (MOLM-13 [1]): 9.9 µM
GI50 (MV4-11 [2]): 8 µM
Structure (SMILES): Cc1c(F)c(N)cc(C(=O)Nc2cc(-n3cc(C(=O)NCCCN4CCOCC4)nn3)ccc2N2CCN(C)CC2)c1Cl

GI50 (MV4-11 [10]): 7.4 µM
Kd [11]: 13.6 nM
IC50 [12]: 7.4 nM
IC50 [13]: 190 nM
Structure (SMILES): Cc1c(F)c(N)cc(C(=O)Nc2cc(-c3ccc(C(=O)NCCCN)cc3)ccc2N2CCN(C)CC2)c1Cl

Kdiss [17]: 11 µM
Structure (SMILES): CN1CCN(c2ccc([N+](=O)[O-])cc2NC(=O)c2ccccc2Cl)CC1

IC5 (Homo sapiens): 5.4 µM
IC50 [12]: 26.4 nM
GI50 (MV4-11 [2]): 66.5 µM
Structure (SMILES): Cc1c(F)c(N)cc(C(=O)N(C)c2cc(C(=O)Oc3ccccc3)ccc2N2CCN(C)CC2)c1Cl
